From patent publication US20170190744A1 (Vicuron Pharmaceuticals, Inc., priority 2015, published 2017)
≈ marks a conversion by molar mass, not a printed value. Where “and” joins values, the source holds several entries; their conditions need not be identical. Equal entries are not always repeated. Where two headings read alike, the source gives them in different places.

Key:
[1] = target: N,N′-diacetyl-Lys-D-Ala-D-Ala; assay: ITC, 25 °C, 513 µM HSA present
[2] = target: N,N′-diacetyl-Lys-D-Ala-D-Ala; assay: ITC, 25 °C, [HSA] 0 µM
[3] = target: N,N′-diacetyl-Lys-D-Ala-D-Ala; assay: ITC, 10 °C, [HSA] 0 µM
[4] = target: N,N′-diacetyl-Lys-D-Ala-D-Ala; assay: ITC, 25 °C, apparent, 288 µM HSA present
[5] = target: human serum proteins; assay: cell-based or functional assay
[6] = target: N,N′-diacetyl-Lys-D-Ala-D-Ala; assay: ITC, 25 °C, apparent, 430 µM HSA present
[7] = target: N,N′-diacetyl-Lys-D-Ala-D-Ala; assay: ITC, 25 °C, free dalbavancin
[8] = target: N,N′-diacetyl-Lys-D-Ala-D-Ala; assay: ITC, 37 °C, apparent, 482 µM HSA present
[9] = target: N,N′-diacetyl-Lys-D-Ala-D-Ala; assay: ITC, 25 °C, apparent, 104 µM HSA present
[10] = target: N,N′-diacetyl-Lys-D-Ala-D-Ala; assay: ITC, 37 °C, [HSA] 0 µM
[11] = target: N,N′-diacetyl-Lys-D-Ala-D-Ala; assay: ITC, 25 °C, apparent, 601 µM HSA present
[12] = test system: Candida albicans SKF 2270; assay: MIC by broth microdilution (NCCLS), with or without 30% bovine serum (Example 19); type: cell-based; settings: SKF2270
Procedure: MICs were determined by the broth microdilution methodology following the standard NCCLS procedure (NCCLS Document M7-A6, Vol. 23, No. 2, “Methods for dilution antimicrobial susceptibility tests for bacteria that grow aerobically.” Approved Guideline. January 2003, which can be herein incorporated by reference in its entirety), with or without 30% adult bovine serum (BS) (PAA Laboratories GmBH, Haidmannweg Pasching Austria), using bacterial innocula at approximately 5×10^5 CFU/ml. The media employed included cation-adjusted Müller Hinton broth (Difco Laboratories, Detroit, Mich.) that was used that was adjusted with CaCl2 and MgCl2 to a final concentration of 20 mg/L and 10 mg/L, respectively. Tests were read following 20-24 hours of incubation at 35° C.

[13] = test system: gram-negative bacteria; assay: as above; type: cell-based
Procedure: (§1) The compounds were prepared according to the examples above and the methods described in U.S. Patent Application Publication No. 2004/0142883. Individual dalbavancin compounds were purified by HPLC. […] Before dissolution, each sample was analyzed by HPLC and quantified. […] Louis, Mo.), Gentamycin (GE) (Sigma Chemical Co., St. Louis, Mo.), Penicillin G (Pen.G) (Sigma Chemical Co., St. Louis, Mo.), and Amphotericin B (Amph.B) (Sigma Chemical Co., St. Louis, Mo.). The microorganisms used were reference strains obtained from the American Type Culture Collection (ATCC) (Rockville, Md.), SmithKline and French Laboratories (SKF), and the Upjohn Company (UC) (Kalamazoo, Mich.).

[14] = test system: gram positive bacteria; assay: as above; type: cell-based
Procedure: as §1

[15] = test system: S. aureus; assay: MIC of study organisms (NCCLS microdilution); type: cell-based; settings: Staphylococcus aureus
Procedure: (§2) MICs were determined in MHB by standard NCCLS microdilution techniques. […] All MICs were performed at least in duplicate.

[16] = parameters: species or system Sprague-Dawley rats; settings: rat, in vivo, iv, 20 mg/kg
Procedure: Mass balance studies were conducted to determine the excretion pattern of dalbavancin following a single intravenous (IV) infusion of dalbavancin in male rats. […] Water and methanol cage washes were also collected.

[17] = test system: S. pneumoniae; assay: MIC of study organisms (NCCLS microdilution); type: cell-based; settings: S. pneumoniae strain 10813
Procedure: as §2

In the case of Vancomycin hydrochloride (peptide), the Ka [1] is reported as 290000 M⁻¹, the N [1] is reported as 1.05 and the Ka [2] is reported as 340000 M⁻¹ and 360000 M⁻¹. The N [2] was 0.91 and 0.97, the Ka [3] was 690000 M⁻¹ and the N [3] was 1.1.

Dalbavancin (peptide) gave an N [4] of 0.9, a degree of binding estimated from MIC difference [5] of 96% and an N [6] of 1.24. For the same compound, the Kd [7] was 3000 nM, the N [8] was 0.179 and the N [9] was 1.38. For the same compound, the N [10] was 0.82 and the N [11] was 0.86.

In the case of `CNC1C(=O)NC2Cc3ccc(c(Cl)c3)Oc3cc4cc(c3OC3OC(C(=O)O)C(O)C(O)C3NC(=O)CCCCCCCCC(C)C)Oc3ccc(cc3Cl)C(O)C3NC(=O)C(NC(=O)C4NC(=O)C(NC2=O)c2cc(O)cc(c2)Oc2cc1ccc2O)c1ccc(O)c(c1)-c1c(OC2OC(CO)C(O)C(O)C2O)cc(O)cc1C(C(=O)NCCCN(C)C)NC3=O` [Composition B0, ristomycin A aglycone, 5,31-dichloro-38-de(methoxycarbonyl)-7-demethyl-19-deoxy-56-O-(2-deoxy-2-((10-methyl-1-oxoundecyl)amino)-beta-D-glucopyranuronosyl)-38-(((3-(dimethylamino)propyl)amino)-carbonyl)-42-O-alpha-D-mannopyranosyl-N^15-methyl-], the MIC ([12]; Candida albicans) is reported as greater than 64 mg/L, the MIC ([13]; E. coli ATCC25922 ref. strain) is reported as greater than 64 mg/L and the MIC ([13]; Escherichia coli SKF 12140) is reported as greater than 64 mg/L. The MIC ([13]; Proteus vulgaris, ATCC881) was greater than 64 mg/L, the MIC ([13]; Pseudomonas aeruginosas ATCC 10145) was greater than 64 mg/L and the MIC ([14]; Bacillus subtilis ATCC6633) was “≦0.06 mg/L”. It also gave an MIC ([14]; E. faecalis ATCC29212 ref. strain) of 0.125 µg/mL (≈ 0.0688 µM), an MIC ([14]; Enterococcus faecalis, ATCC7080) of 0.125 µg/mL (≈ 0.0688 µM) and an MIC ([14]; S. aureus ATCC29213 ref. strain) of 0.125 µg/mL (≈ 0.0688 µM). For the same compound, the MIC ([14]; S. aureus Smith + 30% BS) was 2 µg/mL, the MIC ([14]; S. epidermidis ATCC12228) was “≦0.06 mg/L” and the MIC ([14]; S. pneumoniae Felton UC41) was “≦0.06 mg/L”. For the same compound, the MIC ([14]; Staphylococcus aureus Smith ATCC19636) was 0.25 µg/mL (≈ 0.138 µM) and the MIC ([14]; Streptococcus pyrogenes SKF 13400) was “≦0.06 mg/L”.

`COc1cccc(OC)c1C(=O)N[C@@H]1C(=O)N2[C@@H]1SC(C)(C)[C@@H]2C(=O)O` [Methicillin] showed an MIC ([15]; MRSA, S. aureus strain MRSA) greater than 8 µg/mL, an MIC ([15]; S. aureus strain 25923) of 0.12 µg/mL and an MIC ([15]; S. aureus strain 31005) of 0.12 µg/mL. For the same compound, the MIC ([15]; S. aureus strain 33591) was greater than 8 µg/mL, the MIC ([15]; S. aureus strain 307109) was greater than 8 µg/mL and the MIC ([15]; S. aureus strain Smith) was 0.12 µg/mL.

`CC(C)CCCCCCCCC(=O)N[C@H]1[C@H](Oc2c3cc4cc2Oc2ccc(cc2Cl)[C@@H](O)[C@@H]2NC(=O)[C@H](NC(=O)[C@@H]4NC(=O)[C@H]4NC(=O)[C@@H](Cc5ccc(cc5)O3)NC(=O)[C@H](N(C)C)c3ccc(O)c(c3)Oc3cc(O)c(Cl)c4c3)c3ccc(O)c(c3)-c3c(O[C@H]4O[C@H](CO)[C@@H](O)[C@H](O)[C@@H]4O)cc(O)cc3[C@@H](C(=O)NCCCN(C)C)NC2=O)O[C@H](C(=O)O)[C@@H](O)[C@@H]1O` [Composition B2, N^15,N^15-dimethyl dalbavancin B0] showed an MIC ([12]; Candida albicans SKF 2270, read-out: MIC) of 32 mg/L (≈ 17.5 µM), an MIC ([13]; ATCC881, Proteus vulgaris ATCC 881, read-out: MIC) of 32 mg/L (≈ 17.5 µM) and an MIC ([13]; Escherichia coli SKF 12140, read-out: MIC) of 32 mg/L (≈ 17.5 µM). It also gave an MIC ([13]; Escherichia coli, E. coli ATCC25922 ref. strain, read-out: MIC) of 32 mg/L (≈ 17.5 µM), an MIC ([13]; Pseudomonas aeruginosas ATCC 10145, read-out: MIC) of 16 mg/L (≈ 8.74 µM) and an MIC ([14]; ATCC6633, Bacillus subtilis ATCC 6633, read-out: MIC) of no more than 0.03 µg/mL. The MIC ([14]; ATCC7080, Enterococcus faecalis ATCC 7080, read-out: MIC) was 0.06 µg/mL (≈ 0.0328 µM), the MIC ([14]; ATCC19636, Staphylococcus aureus Smith ATCC 19636, read-out: MIC) was 0.125 µg/mL (≈ 0.0683 µM) and the MIC ([14]; Enterococcus faecalis, E. faecalis ATCC29212 ref. strain, read-out: MIC) was 0.125 µg/mL (≈ 0.0683 µM). It also gave an MIC ([14]; Staphylococcus aureus, ATCC29213, S. aureus ATCC 29213 ref. strain, read-out: MIC) of 0.125 µg/mL (≈ 0.0683 µM), an MIC ([14]; Staphylococcus aureus, S. aureus Smith + 30% BS, read-out: MIC) of 2 µg/mL and an MIC ([14]; Staphylococcus epidermidis, ATCC12228, S. epidermidis ATCC 12228, read-out: MIC) of no more than 0.03 µg/mL. The MIC ([14]; Streptococcus pneumoniae, S. pneumoniae Felton UC41, read-out: MIC) was no more than 0.03 µg/mL and the MIC ([14]; Streptococcus pyrogenes SKF 13400, read-out: MIC) was no more than 0.03 µg/mL.

For `CN[C@H]1C(=O)N[C@@H]2Cc3ccc(cc3)Oc3cc4cc(c3O[C@@H]3O[C@H](C(=O)O)[C@@H](O)[C@H](O)[C@H]3NC(=O)CCCCCCCCC(C)C)Oc3ccc(cc3Cl)[C@@H](O)[C@@H]3NC(=O)[C@H](NC(=O)[C@@H]4NC(=O)[C@@H](NC2=O)c2cc(cc(O)c2Cl)Oc2cc1ccc2O)c1ccc(O)c(c1)-c1c(O[C@H]2O[C@H](CO)[C@@H](O)[C@H](O)[C@@H]2O)cc(O)cc1[C@@H](C(=O)NCCCN(C)C)NC3=O` [^3H-dalbavancin], the “fraction of excreted radioactivity eliminated in feces” value [16] was “⅓” and the “fraction of excreted radioactivity eliminated in urine” value [16] was “⅔”.

With Penicillin the MIC [17] was 8 ng/mL.
